Measured values as given in ChEMBL document CHEMBL5291721, “A preclinical secondary pharmacology resource illuminates target-adverse drug reaction associations of marketed drugs” (Nat Commun, 2023).

Key:
[1] = molecular target: T1, Estrogen receptor (Homo sapiens, UniProt P03372)
T1 sequence (P03372 whole entry): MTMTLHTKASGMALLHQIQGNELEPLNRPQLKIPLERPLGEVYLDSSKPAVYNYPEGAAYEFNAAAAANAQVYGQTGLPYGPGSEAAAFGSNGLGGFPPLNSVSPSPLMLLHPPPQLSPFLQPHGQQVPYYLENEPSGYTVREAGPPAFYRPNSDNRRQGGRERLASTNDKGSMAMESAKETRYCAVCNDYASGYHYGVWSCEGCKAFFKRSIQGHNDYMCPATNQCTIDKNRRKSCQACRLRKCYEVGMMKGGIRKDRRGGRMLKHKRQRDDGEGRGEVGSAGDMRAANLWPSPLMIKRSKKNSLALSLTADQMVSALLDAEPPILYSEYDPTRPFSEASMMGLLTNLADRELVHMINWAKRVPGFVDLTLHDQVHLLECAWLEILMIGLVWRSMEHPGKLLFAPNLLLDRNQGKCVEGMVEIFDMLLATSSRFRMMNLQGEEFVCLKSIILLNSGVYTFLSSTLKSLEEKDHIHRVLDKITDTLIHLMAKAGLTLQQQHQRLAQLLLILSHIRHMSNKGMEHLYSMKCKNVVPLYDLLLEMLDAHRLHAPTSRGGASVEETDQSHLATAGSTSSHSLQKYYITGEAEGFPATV

[2] = molecular target: T2, B1 bradykinin receptor (Homo sapiens, UniProt P46663)
T2 sequence (P46663 whole entry): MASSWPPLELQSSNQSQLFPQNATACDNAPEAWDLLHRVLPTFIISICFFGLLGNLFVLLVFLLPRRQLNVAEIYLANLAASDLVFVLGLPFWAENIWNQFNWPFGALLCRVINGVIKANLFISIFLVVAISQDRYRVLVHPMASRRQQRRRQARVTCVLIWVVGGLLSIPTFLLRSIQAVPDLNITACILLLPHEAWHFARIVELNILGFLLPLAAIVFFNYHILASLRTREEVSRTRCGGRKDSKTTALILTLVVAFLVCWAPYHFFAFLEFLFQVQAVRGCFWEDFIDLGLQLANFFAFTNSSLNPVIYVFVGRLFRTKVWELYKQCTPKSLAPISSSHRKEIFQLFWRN

[3] = molecular target: T3, Corticotropin-releasing factor receptor 2 (Homo sapiens, UniProt Q13324)
T3 sequence (Q13324 whole entry): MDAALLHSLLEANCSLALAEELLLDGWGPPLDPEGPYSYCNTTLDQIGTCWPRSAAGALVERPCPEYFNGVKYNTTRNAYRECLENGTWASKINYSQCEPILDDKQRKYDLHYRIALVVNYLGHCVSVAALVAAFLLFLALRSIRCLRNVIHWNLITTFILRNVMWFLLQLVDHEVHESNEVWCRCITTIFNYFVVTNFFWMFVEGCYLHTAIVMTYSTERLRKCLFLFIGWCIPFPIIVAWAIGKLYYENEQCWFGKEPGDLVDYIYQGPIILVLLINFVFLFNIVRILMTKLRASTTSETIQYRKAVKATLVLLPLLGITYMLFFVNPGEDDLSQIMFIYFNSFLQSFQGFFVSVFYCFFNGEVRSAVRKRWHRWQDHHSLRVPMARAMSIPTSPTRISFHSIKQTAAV

[4] = molecular target: Muscarinic acetylcholine receptor M3 (Homo sapiens, UniProt P20309)
[5] = molecular target: Gamma-aminobutyric acid receptor subunit alpha-1/alpha-2/beta-2/gamma-2 (Homo sapiens, UniProt P14867+P18507+P47869+P47870); type: functional, cell-based
Note: assay procedure not described here.

Muscarinic acetylcholine receptor M3, sequence (P20309 whole entry): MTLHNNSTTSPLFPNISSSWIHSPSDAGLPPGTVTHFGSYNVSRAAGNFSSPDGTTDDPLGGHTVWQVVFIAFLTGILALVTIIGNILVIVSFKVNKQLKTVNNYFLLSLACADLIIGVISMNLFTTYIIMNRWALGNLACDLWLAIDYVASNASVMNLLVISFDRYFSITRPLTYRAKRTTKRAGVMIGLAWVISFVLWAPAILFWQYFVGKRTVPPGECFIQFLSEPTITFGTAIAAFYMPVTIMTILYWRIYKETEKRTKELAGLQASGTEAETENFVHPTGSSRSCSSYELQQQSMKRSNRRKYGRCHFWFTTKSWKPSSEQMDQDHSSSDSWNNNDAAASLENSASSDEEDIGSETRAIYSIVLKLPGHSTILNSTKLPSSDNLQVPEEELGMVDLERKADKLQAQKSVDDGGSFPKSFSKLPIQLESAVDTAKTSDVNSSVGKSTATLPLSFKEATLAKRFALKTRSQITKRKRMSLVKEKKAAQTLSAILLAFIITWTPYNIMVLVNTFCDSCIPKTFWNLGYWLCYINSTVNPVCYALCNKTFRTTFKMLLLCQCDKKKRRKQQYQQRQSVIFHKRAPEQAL
Gamma-aminobutyric acid receptor subunit alpha-1/alpha-2/beta-2/gamma-2, sequence (P14867 whole entry): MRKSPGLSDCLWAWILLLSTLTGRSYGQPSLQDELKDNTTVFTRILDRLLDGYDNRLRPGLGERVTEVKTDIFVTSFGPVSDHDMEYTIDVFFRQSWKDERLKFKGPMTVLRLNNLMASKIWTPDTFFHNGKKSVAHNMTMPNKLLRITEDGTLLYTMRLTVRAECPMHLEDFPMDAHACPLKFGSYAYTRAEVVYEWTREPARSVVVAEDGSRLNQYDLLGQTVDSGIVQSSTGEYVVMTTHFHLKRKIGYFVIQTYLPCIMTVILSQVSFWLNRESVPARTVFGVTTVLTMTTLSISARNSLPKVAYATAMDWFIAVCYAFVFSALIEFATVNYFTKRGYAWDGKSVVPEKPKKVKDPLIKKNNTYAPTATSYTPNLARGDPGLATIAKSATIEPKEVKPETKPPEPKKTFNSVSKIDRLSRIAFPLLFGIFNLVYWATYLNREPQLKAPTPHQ
Gamma-aminobutyric acid receptor subunit alpha-1/alpha-2/beta-2/gamma-2, sequence (P47870 whole entry): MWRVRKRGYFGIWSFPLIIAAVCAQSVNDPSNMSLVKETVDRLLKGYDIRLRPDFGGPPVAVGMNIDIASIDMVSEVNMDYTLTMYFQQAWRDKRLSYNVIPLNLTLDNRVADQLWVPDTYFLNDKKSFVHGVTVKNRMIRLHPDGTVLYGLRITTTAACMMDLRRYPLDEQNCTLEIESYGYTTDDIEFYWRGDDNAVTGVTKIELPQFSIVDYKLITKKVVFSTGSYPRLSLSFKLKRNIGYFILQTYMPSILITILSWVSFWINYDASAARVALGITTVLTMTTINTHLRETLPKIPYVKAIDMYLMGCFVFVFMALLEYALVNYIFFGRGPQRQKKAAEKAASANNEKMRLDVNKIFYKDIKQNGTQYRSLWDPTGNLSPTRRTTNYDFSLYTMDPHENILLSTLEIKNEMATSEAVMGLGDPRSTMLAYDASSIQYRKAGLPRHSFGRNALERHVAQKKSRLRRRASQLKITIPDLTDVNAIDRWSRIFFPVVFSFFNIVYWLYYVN
Gamma-aminobutyric acid receptor subunit alpha-1/alpha-2/beta-2/gamma-2, sequence (P18507 whole entry): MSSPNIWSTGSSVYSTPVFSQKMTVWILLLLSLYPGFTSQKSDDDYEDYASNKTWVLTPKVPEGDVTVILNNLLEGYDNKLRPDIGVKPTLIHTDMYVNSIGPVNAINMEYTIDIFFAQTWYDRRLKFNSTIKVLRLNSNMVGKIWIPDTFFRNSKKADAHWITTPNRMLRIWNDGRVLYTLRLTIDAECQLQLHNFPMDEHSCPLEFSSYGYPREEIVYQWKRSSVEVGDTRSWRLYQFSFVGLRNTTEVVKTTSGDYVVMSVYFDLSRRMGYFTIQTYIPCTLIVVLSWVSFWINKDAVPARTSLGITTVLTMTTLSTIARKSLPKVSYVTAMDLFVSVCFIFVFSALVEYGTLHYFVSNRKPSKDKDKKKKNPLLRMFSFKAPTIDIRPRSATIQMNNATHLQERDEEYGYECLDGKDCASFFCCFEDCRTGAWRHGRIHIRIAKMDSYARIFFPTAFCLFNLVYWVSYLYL
Gamma-aminobutyric acid receptor subunit alpha-1/alpha-2/beta-2/gamma-2, sequence (P47869 whole entry): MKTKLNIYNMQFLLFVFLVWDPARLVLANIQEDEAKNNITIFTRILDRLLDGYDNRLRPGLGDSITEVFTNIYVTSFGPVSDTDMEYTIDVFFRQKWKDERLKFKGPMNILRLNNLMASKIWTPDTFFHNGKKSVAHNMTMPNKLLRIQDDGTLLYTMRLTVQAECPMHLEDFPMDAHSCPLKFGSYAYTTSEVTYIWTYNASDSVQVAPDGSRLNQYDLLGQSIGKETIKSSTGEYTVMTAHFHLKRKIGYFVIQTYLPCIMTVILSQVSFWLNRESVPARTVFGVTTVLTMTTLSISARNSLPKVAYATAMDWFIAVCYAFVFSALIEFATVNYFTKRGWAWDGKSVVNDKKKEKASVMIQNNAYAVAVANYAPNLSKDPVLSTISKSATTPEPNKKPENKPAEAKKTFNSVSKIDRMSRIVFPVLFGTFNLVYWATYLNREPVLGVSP

In the case of `CC(/C=C1\SC(=S)N(CC(=O)O)C1=O)=C\c1ccccc1`, the AC50 [1] is reported as over 30 µM.

Work on `CC1(C)S[C@@H]2[C@H](NC(=O)[C@H](N)c3ccc(O)cc3)C(=O)N2[C@H]1C(=O)O` [AMOXICILLIN] yielded an AC50 [2] of over 30 µM and an AC50 [3] of over 30 µM.

Work on `O=C1CN2Cc3c(ccc(Cl)c3Cl)N=C2N1` [ANAGRELIDE] yielded an AC50 [4] of over 10 µM and an AC50 [1] of over 30 µM.

`CNCC[C@@H](Oc1ccccc1C)c1ccccc1` [ATOMOXETINE] showed an AC50 [4] of over 30 µM and an AC50 [1] of over 30 µM.

`[H]/N=C(\N/C(=N/[H])NCCCCCCNC(=N)NC(=N)Nc1ccc(Cl)cc1)Nc1ccc(Cl)cc1` [CHLORHEXIDINE] gave an AC50 [4] of 7.8 µM and an AC50 [1] of over 30 µM.

In the case of `Clc1cccc(Cl)c1N=C1NCCN1` [CLONIDINE], the AC50 [2] is reported as over 30 µM and the AC50 [3] is reported as over 30 µM.

In the case of `CN1C[C@H](C(=O)N[C@]2(C)O[C@@]3(O)[C@@H]4CCCN4C(=O)[C@H](Cc4ccccc4)N3C2=O)C[C@@H]2c3cccc4[nH]cc(c34)C[C@H]21` [DIHYDROERGOTAMINE], the AC50 [2] is reported as over 30 µM, the AC50 [1] is reported as over 30 µM and the AC50 [3] is reported as over 30 µM.

Compound `CNCC[C@H](Oc1cccc2ccccc12)c1cccs1` [DULOXETINE] has an AC50 [4] of over 30 µM.

`CCC(=O)O[C@@H](O[P@](=O)(CCCCc1ccccc1)CC(=O)N1C[C@H](C2CCCCC2)C[C@H]1C(=O)O)C(C)C` [FOSINOPRIL] was tested, and the AC50 [5] was over 30 µM and the AC50 [4] was over 30 µM.

In the case of `Nc1nc(O)c2ncn(COC(CO)CO)c2n1` [GANCICLOVIR], the AC50 [1] is reported as over 30 µM.

With `Cc1cnc(NC(=O)C2=C(O)c3ccccc3S(=O)(=O)N2C)s1` [MELOXICAM] the AC50 [2] was over 30 µM, the AC50 [1] was over 30 µM and the AC50 [3] was over 30 µM.

With `CC(=O)/N=c1/sc(S(N)(=O)=O)nn1C` [METHAZOLAMIDE] the AC50 [4] was over 30 µM and the AC50 [1] was over 10 µM.

`CC[C@@H](CO)NC(=O)[C@@H]1C=C2c3cccc4[nH]cc(c34)C[C@H]2N(C)C1` [METHYLERGONOVINE] was tested, and the AC50 [1] was over 30 µM.

For `CC(=O)Oc1ccccc1C(=O)Nc1ncc([N+](=O)[O-])s1` [NITAZOXANIDE], the AC50 [4] was 13 µM and the AC50 [1] was over 30 µM.

`CNCCC=C1c2ccccc2CCc2ccccc21` [NORTRIPTYLINE] was tested, and the AC50 [1] was over 30 µM.

With `COc1ccnc(C[S+]([O-])c2nc3ccc(OC(F)F)cc3[nH]2)c1OC` (configuration not stated) [PANTOPRAZOLE] the AC50 [2] was over 30 µM, the AC50 [1] was over 30 µM and the AC50 [3] was over 30 µM.

Compound `CNC[C@H](O)c1cccc(O)c1` [PHENYLEPHRINE] has an AC50 [2] of over 30 µM, an AC50 [4] of over 30 µM and an AC50 [3] of over 30 µM.

For `O=C(Nc1c(Cl)cncc1Cl)c1ccc(OC(F)F)c(OCC2CC2)c1` [ROFLUMILAST], the AC50 [4] was over 30 µM and the AC50 [1] was over 30 µM.

For `CC(C)N(CCCCOCC(=O)NS(C)(=O)=O)c1cnc(-c2ccccc2)c(-c2ccccc2)n1` [SELEXIPAG], the AC50 [4] was over 30 µM and the AC50 [1] was over 30 µM.

For `CCCCNc1ccc(C(=O)OCCN(C)C)cc1` [TETRACAINE], the AC50 [2] was over 30 µM and the AC50 [3] was over 30 µM.

In the case of `Cn1c(=O)c2[nH]cnc2n(C)c1=O` [THEOPHYLLINE], the AC50 [2] is reported as over 30 µM and the AC50 [3] is reported as over 30 µM.

Work on `CN1CCN(CCCN2c3ccccc3Sc3ccc(S(=O)(=O)N(C)C)cc32)CC1` [THIOPROPERAZINE] yielded an AC50 [5] of over 30 µM and an AC50 [4] of 18 µM.

`CC1(C)O[C@@H]2[C@@H](CO[C@@]3(COS(N)(=O)=O)OC(C)(C)O[C@@H]23)O1` [TOPIRAMATE] was tested, and the AC50 [2] was over 30 µM, the AC50 [1] was over 30 µM and the AC50 [3] was over 30 µM.

`Cc1cc(CC(=O)O)n(C)c1C(=O)c1ccc(Cl)cc1` [ZOMEPIRAC] showed an AC50 [4] of over 30 µM.
